The results in this text go back to patent US11732256B2, “Multivalent glycopeptides that tightly bind to target proteins” (Brandeis University, priority 2013, dated 2023).

*1 amine or outer side, *2 acyl side, *3 side chain or, on linkers, in order; H or OH if unused. [ ]: non-standard residue; d: D form. The star is where a group is joined. X1 = O=C([C@H](CCc1cn(C2CCC(OC3O[C@H](CO[C@H]4O[C@H](CO[C@H]5O[C@H](CO)[C@@H](O)[C@H](O)[C@@H]5O[C@H]5O[C@H](CO)[C@@H](O)[C@H](O)[C@@H]5O)[C@@H](O)[C@H](O[C@H]5O[C@H](CO)[C@@H](O)[C@H](O)[C@@H]5O[C@H]5O[C@H](CO)[C@@H](O)[C@H](O)[C@@H]5O)[C@@H]4O)[C@@H](O)[C@H](O[C@H]4O[C@H](CO)[C@@H](O)[C@H](O)[C@@H]4O[C@H]4O[C@H](CO)[C@@H](O)[C@H](O)[C@@H]4O[C@H]4O[C@H](CO)[C@@H](O)[C@H](O)[C@@H]4O)[C@@H]3O)CC2)nn1)N[*:1])[*:2]; For = O=C* Where only a bound is given, the exact number is not on record here.

This assay deals with HIV broadly neutralizing antibody 2G12. The assay can be described thus: Radioactive 2G12-glycopeptide binding assay with protein G magnetic beads (binding curve and KD determination). The protocol: The sequences were obtained by cloning non-selected library DNA. […] FIG. 9B is an SDS-PAGE analysis of the click reaction of the non-selected peptides. Both peptides were transcribed and translated from PCR-amplified DNA in Pure System that contains 0.02 mg/mL T7 RNA polymerase and additional 1 mM each NTP. The peptides were labeled with 3H-histidine and the bands were visualized by fluorography.
For round 10 winners, 0.12-0.2 nM radioactive glycopeptides were incubated with 0, 0.25, 0.5, 1, 2, 4, 8, 16, 32 or 64 nM 2G12 in 40 μL of selection buffer at room temperature for 1 h. Then, the solution was added to 0.12 mg of pre-equilibrated Dynabeads Protein G and tumbled at room temperature for 30 min. The supernatant was removed and the beads were washed with 3×40 μL of selection buffer. The radioactivities of the supernatant and wash solutions were measured by liquid scintillation counting as unbound fractions. […] The beads were resuspended in 40 μL of selection buffer, heated at 70° C. for 30 min to elute the bound glycopeptides, chilled on ice for 5 min, and tumbled at room temperature for 10 min. The supernatant was removed, and the beads were washed with 40 μL of selection buffer and resuspended in 40 μL of selection buffer. The radioactivities of these solutions and suspensions were measured by liquid scintillation counting separately and the values were combined as apparent bound fractions. […] All experiments were done at least in triplicate. KDs were calculated as described in the footnote of Table 4 (below).

The mark [1] stands for this setting: Table 6 mutants/truncations, radioactive binding assay.

Take “XYKNIPSTTXNLYSKPXATVTTLKCKLNGNRIS [Clone 12G]”: the Kd (Table 4, radiolabeled ribosomally translated glycopeptide, varied 2G12, room temperature, ± standard error of curve fit) is above 128 nM.

Regarding “For-[X1]PNCITQQDVR[X1]TSIPYTYTWPGSGSLGHHHHHHRDYKDDDDK-OH [Clone 10F3-Δ11, XPNCITQQDVRXTSIPYTYTWP]”, the “Fmax [%]” value under setting [1] is reported as 32%.

Regarding “XDTLHLKQIGGXPNSITQQDVRXTSIPYTYTWP [Clone 10F3-C15S]”, under setting [1], the “Fmax [%]” value was determined as 63% and the Kd amounted to 2.91 nM.

As for `CC[C@H](C)[C@H](NC(=O)[C@H](CCCNC(=N)N)NC(=O)[C@H](CCCNC(=N)N)NC(=O)CNC(=O)[C@H](CC(=O)O)NC(=O)[C@H](CC(N)=O)NC(=O)[C@H](CC(C)C)NC(=O)[C@@H](NC(=O)[C@H](CCc1cn(C2CCC(OC3O[C@H](CO[C@H]4O[C@H](CO[C@H]5O[C@H](CO)[C@@H](O)[C@H](O)[C@@H]5O[C@H]5O[C@H](CO)[C@@H](O)[C@H](O)[C@@H]5O)[C@@H](O)[C@H](O[C@H]5O[C@H](CO)[C@@H](O)[C@H](O)[C@@H]5O[C@H]5O[C@H](CO)[C@@H](O)[C@H](O)[C@@H]5O)[C@@H]4O)[C@@H](O)[C@H](O[C@H]4O[C@H](CO)[C@@H](O)[C@H](O)[C@@H]4O[C@H]4O[C@H](CO)[C@@H](O)[C@H](O)[C@@H]4O[C@H]4O[C@H](CO)[C@@H](O)[C@H](O)[C@@H]4O)[C@@H]3O)CC2)nn1)NC=O)C(C)C)C(=O)N[C@H](C(=O)N[C@@H](CCC(N)=O)C(=O)N[C@@H](CCc1cn(C2CCC(OC3O[C@H](CO[C@H]4O[C@H](CO[C@H]5O[C@H](CO)[C@@H](O)[C@H](O)[C@@H]5O[C@H]5O[C@H](CO)[C@@H](O)[C@H](O)[C@@H]5O)[C@@H](O)[C@H](O[C@H]5O[C@H](CO)[C@@H](O)[C@H](O)[C@@H]5O[C@H]5O[C@H](CO)[C@@H](O)[C@H](O)[C@@H]5O)[C@@H]4O)[C@@H](O)[C@H](O[C@H]4O[C@H](CO)[C@@H](O)[C@H](O)[C@@H]4O[C@H]4O[C@H](CO)[C@@H](O)[C@H](O)[C@@H]4O[C@H]4O[C@H](CO)[C@@H](O)[C@H](O)[C@@H]4O)[C@@H]3O)CC2)nn1)C(=O)N[C@@H](CO)C(=O)N[C@@H](CS)C(=O)N[C@@H](CCC(=O)O)C(=O)N[C@@H](CC(C)C)C(=O)N1CCC[C@H]1C(=O)N[C@@H](CCc1cn(C2CCC(OC3O[C@H](CO[C@H]4O[C@H](CO[C@H]5O[C@H](CO)[C@@H](O)[C@H](O)[C@@H]5O[C@H]5O[C@H](CO)[C@@H](O)[C@H](O)[C@@H]5O)[C@@H](O)[C@H](O[C@H]5O[C@H](CO)[C@@H](O)[C@H](O)[C@@H]5O[C@H]5O[C@H](CO)[C@@H](O)[C@H](O)[C@@H]5O)[C@@H]4O)[C@@H](O)[C@H](O[C@H]4O[C@H](CO)[C@@H](O)[C@H](O)[C@@H]4O[C@H]4O[C@H](CO)[C@@H](O)[C@H](O)[C@@H]4O[C@H]4O[C@H](CO)[C@@H](O)[C@H](O)[C@@H]4O)[C@@H]3O)CC2)nn1)C(=O)N[C@H](C(=O)N[C@@H](CCCNC(=N)N)C(=O)N[C@@H](CCCNC(=N)N)C(=O)N[C@@H](CO)C(=O)NCC(=O)N[C@@H](CO)C(=O)NCC(=O)N[C@@H](CO)C(=O)N[C@@H](CC(C)C)C(=O)NCC(=O)N[C@@H](Cc1c[nH]cn1)C(=O)N[C@@H](Cc1c[nH]cn1)C(=O)N[C@@H](Cc1c[nH]cn1)C(=O)N[C@@H](Cc1c[nH]cn1)C(=O)N[C@@H](Cc1c[nH]cn1)C(=O)N[C@@H](Cc1c[nH]cn1)C(=O)N[C@@H](CCCNC(=N)N)C(=O)N[C@@H](CC(=O)O)C(=O)N[C@@H](Cc1ccc(O)cc1)C(=O)N[C@@H](CCCCN)C(=O)N[C@@H](CC(=O)O)C(=O)N[C@@H](CC(=O)O)C(=O)N[C@@H](CC(=O)O)C(=O)N[C@@H](CC(=O)O)C(=O)N[C@@H](CCCCN)C(=O)O)C(C)C)C(C)C` (stereo partly drawn) [Clone 10F5-Δ11, XVLNDGRRIVQXSCELPXVRRS], under setting [1], the “Fmax [%]” value turned out to be 17% and the Kd was above 200 nM.

The Kd is the free concentration of one partner at which half of the binding sites on the other are occupied at equilibrium, for simple one-to-one binding.
